Compound | logP
c1ccc2c(c1)c1ccccc1c1c3ccccc3c3ccccc3c21 | 8.39
c1ccc(-c2ccccn2)nc1 | 1.5
c1cc2ccc3ccc4ccc5ccc6ccc1c1c2c3c4c5c61 | 7.64
c1ccc2c(c1)Cc1ccccc1O2 | 4.23
c1cc(-c2ccncc2)ccn1 | 1.28
c1ccc2c(c1)Sc1ccccc1S2 | 4.47
c1ccc(-c2c3ccccc3c(-c3ccccc3)c3ccccc23)cc1 | 8.46
c1ccc2cc3cc4cc5ccccc5cc4cc3cc2c1 | 7.11
c1ccc(-c2cccc(-c3ccccn3)n2)nc1 | 1.96
c1csc(-c2cccs2)c1 | 3.75
c1cc2ccc3cc4cccc5ccc6cc(c1)c2c3c6c54 | 7.04
c1ccc2cc3c(cc2c1)sc1ccccc13 | 5.34

The next lines start with the values.

logP | Compound
7.11 | c1ccc2cc3c(ccc4c5ccccc5ccc34)cc2c1
7.71 | c1ccc2c(c1)cc1ccc3cccc4c5ccccc5c2c1c34
5.05 | c1ccc2cc3c(cc2c1)oc1ccccc13
6.44 | c1ccc2c(c1)c1cccc3ccc4cccc2c4c31
7.11 | c1ccc2c(c1)ccc1c2ccc2c3ccccc3ccc21
7.11 | c1ccc2c(c1)ccc1c2ccc2ccc3ccccc3c21
